The results in this text go back to patent US11713344B2 (DONG-A ST CO., LTD., priority 2017, dated 2023).

SMILES strings stand for the structures.

One assay concerns the target Human GLP-1 receptors (Homo sapiens, UniProt P43220). Description: GLP-1 receptor activation assay (CRE-luciferase reporter, CHO-K1). For orientation: A reporter such as luciferase makes a cellular process visible.
Another assay addresses Human glucagon receptors (Homo sapiens, UniProt P47871). The assay can be described thus: Glucagon receptor activation assay (CRE-luciferase reporter, CHO-K1).

Chain of Human glucagon receptors (P47871 26-477): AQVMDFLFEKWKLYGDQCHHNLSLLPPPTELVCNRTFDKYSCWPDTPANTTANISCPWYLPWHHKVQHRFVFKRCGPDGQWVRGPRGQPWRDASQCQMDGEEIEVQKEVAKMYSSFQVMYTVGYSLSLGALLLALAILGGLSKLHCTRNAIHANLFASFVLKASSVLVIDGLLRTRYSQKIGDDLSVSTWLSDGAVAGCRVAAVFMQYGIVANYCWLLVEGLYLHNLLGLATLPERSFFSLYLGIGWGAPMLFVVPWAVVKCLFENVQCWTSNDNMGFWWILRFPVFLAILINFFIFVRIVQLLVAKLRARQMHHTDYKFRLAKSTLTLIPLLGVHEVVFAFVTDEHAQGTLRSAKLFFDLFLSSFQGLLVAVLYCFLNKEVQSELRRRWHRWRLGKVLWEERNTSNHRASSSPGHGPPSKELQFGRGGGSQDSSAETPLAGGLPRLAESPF
Chain of Human GLP-1 receptors (P43220 24-463): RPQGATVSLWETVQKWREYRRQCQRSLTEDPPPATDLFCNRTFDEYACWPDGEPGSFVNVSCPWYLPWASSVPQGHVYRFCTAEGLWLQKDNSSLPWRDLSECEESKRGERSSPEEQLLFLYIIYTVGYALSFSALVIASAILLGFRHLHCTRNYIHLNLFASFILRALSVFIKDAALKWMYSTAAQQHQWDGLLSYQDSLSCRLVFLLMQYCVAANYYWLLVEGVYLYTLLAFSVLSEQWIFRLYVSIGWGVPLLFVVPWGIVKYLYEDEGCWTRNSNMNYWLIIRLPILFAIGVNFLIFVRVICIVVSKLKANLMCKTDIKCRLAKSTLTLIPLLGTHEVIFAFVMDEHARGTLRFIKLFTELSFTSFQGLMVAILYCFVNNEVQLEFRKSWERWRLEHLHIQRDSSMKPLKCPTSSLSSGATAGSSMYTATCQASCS

By EC50 is commonly meant the concentration that produces a half-maximal response. With `CCCCCCCCCCCCCCCCCC(=O)N[C@@H](CCC(=O)NCCOCCOCC(=O)NCCOCCOCC(=O)NCCCC[C@H](NC(=O)[C@H](CC(=O)O)NC(=O)[C@H](CO)NC(=O)[C@@H](NC(=O)[C@H](Cc1ccccc1)NC(=O)[C@@H](NC(=O)CNC(=O)[C@H](CCC(N)=O)NC(=O)C(C)(C)NC(=O)[C@@H](N)Cc1c[nH]cn1)[C@@H](C)O)[C@@H](C)O)C(=O)N[C@@H](CO)C(=O)N[C@@H](CCCCN)C(=O)N[C@@H](Cc1ccc(O)cc1)C(=O)N[C@@H](CC(C)C)C(=O)N[C@@H](CC(=O)O)C(=O)N[C@H]1CSSC[C@@H](C(=O)N[C@@H](CC(=O)O)C(=O)N[C@@H](Cc2ccccc2)C(=O)N[C@H](C(=O)N[C@@H](CCC(N)=O)C(=O)N[C@@H](Cc2c[nH]c3ccccc23)C(=O)N[C@@H](CC(C)C)C(=O)N[C@@H](CCSC)C(=O)N[C@@H](CC(N)=O)C(=O)N[C@H](C(=O)N[C@@H](CCCCN)C(=O)O)[C@@H](C)O)C(C)C)NC(=O)[C@H](C)NC(=O)[C@H](CCCNC(=N)N)NC(=O)[C@H](CCCNC(=N)N)NC1=O)C(=O)O` [Compound 28, H-HAibQGTFTSDZSKYLDCRRACDFVQWLMNTK-OH], the EC50 on Human GLP-1 receptors and at Human glucagon receptors was 0.1 to 1 nM throughout.

Turning to `CSCC[C@H](NC(=O)[C@H](CC(C)C)NC(=O)[C@H](Cc1c[nH]c2ccccc12)NC(=O)[C@H](CCC(N)=O)NC(=O)[C@@H](NC(=O)[C@H](Cc1ccccc1)NC(=O)[C@H](CC(=O)O)NC(=O)[C@H](CCC(N)=O)NC(=O)[C@H](C)NC(=O)[C@H](CCCNC(=N)N)NC(=O)[C@H](CCCNC(=N)N)NC(=O)C(C)(C)NC(=O)[C@H](CC(=O)O)NC(=O)[C@H](CC(C)C)NC(=O)[C@H](Cc1ccc(O)cc1)NC(=O)[C@H](CCCCN)NC(=O)[C@H](CO)NC(=O)[C@H](CCCCNC(=O)COCCOCCNC(=O)COCCOCCNC(=O)CC[C@H](NC(=O)CCCCCCCCCCCCCCC(=O)O)C(=O)O)NC(=O)[C@H](CC(=O)O)NC(=O)[C@H](CO)NC(=O)[C@@H](NC(=O)[C@H](Cc1ccccc1)NC(=O)[C@@H](NC(=O)CNC(=O)[C@H](CCC(N)=O)NC(=O)C(C)(C)NC(=O)[C@@H](N)Cc1c[nH]cn1)[C@@H](C)O)[C@@H](C)O)C(C)C)C(=O)N[C@@H](CC(N)=O)C(=O)N[C@H](C(=O)N[C@@H](CCCCN)C(=O)O)[C@@H](C)O` [Compound 42], the values for the EC50 at Human GLP-1 receptors and at Human glucagon receptors were 0.1 to 1 nM and > 1 nM, respectively.

As for `CCCCCCCCCCCCCCCCCC(=O)N[C@@H](CCC(=O)NCCOCCOCC(=O)NCCOCCOCC(=O)NCCCC[C@H](NC(=O)[C@H](CC(=O)O)NC(=O)[C@H](CO)NC(=O)[C@@H](NC(=O)[C@H](Cc1ccccc1)NC(=O)[C@@H](NC(=O)CNC(=O)[C@H](CCC(N)=O)NC(=O)C(C)(C)NC(=O)[C@@H](N)Cc1c[nH]cn1)[C@@H](C)O)[C@@H](C)O)C(=O)N[C@@H](CO)C(=O)N[C@@H](CCCCN)C(=O)N[C@@H](Cc1ccc(O)cc1)C(=O)N[C@@H](CC(C)C)C(=O)N[C@@H](CC(=O)O)C(=O)NC(C)(C)C(=O)N[C@@H](CCCNC(=N)N)C(=O)N[C@@H](CCCNC(=N)N)C(=O)N[C@@H](C)C(=O)N[C@@H](CCC(N)=O)C(=O)N[C@@H](CC(=O)O)C(=O)N[C@@H](Cc1ccccc1)C(=O)N[C@H](C(=O)N[C@@H](CCC(N)=O)C(=O)N[C@@H](Cc1c[nH]c2ccccc12)C(=O)N[C@@H](CC(C)C)C(=O)N[C@@H](CC(C)C)C(=O)N[C@@H](CCCNC(=N)N)C(=O)N[C@@H](C)C(=O)N[C@@H](CCCCN)C(=O)O)C(C)C)C(=O)O` [Compound 12], the EC50 on Human GLP-1 receptors and on Human glucagon receptors was < 0.01 nM in each case.

For `CCCCCCCCCCCCCCCCCC(=O)N[C@@H](CCC(=O)NCC(=O)N[C@@H](CO)C(=O)NCC(=O)N[C@@H](CO)C(=O)NCC(=O)NCC(=O)NCCCC[C@H](NC(=O)[C@H](CC(=O)O)NC(=O)[C@H](CO)NC(=O)[C@@H](NC(=O)[C@H](Cc1ccccc1)NC(=O)[C@@H](NC(=O)CNC(=O)[C@H](CCC(N)=O)NC(=O)C(C)(C)NC(=O)[C@@H](N)Cc1c[nH]cn1)[C@@H](C)O)[C@@H](C)O)C(=O)N[C@@H](CO)C(=O)N[C@@H](CCCCN)C(=O)N[C@@H](Cc1ccc(O)cc1)C(=O)N[C@@H](CC(C)C)C(=O)N[C@@H](CC(=O)O)C(=O)NC(C)(C)C(=O)N[C@@H](CCCNC(=N)N)C(=O)N[C@@H](CCCNC(=N)N)C(=O)N[C@@H](C)C(=O)N[C@@H](CCC(N)=O)C(=O)N[C@@H](CC(=O)O)C(=O)N[C@@H](Cc1ccccc1)C(=O)N[C@H](C(=O)N[C@@H](CCC(N)=O)C(=O)N[C@@H](Cc1c[nH]c2ccccc12)C(=O)N[C@@H](CC(C)C)C(=O)N[C@@H](CCSC)C(=O)N[C@@H](CC(N)=O)C(=O)N[C@H](C(=O)N[C@@H](CCCCN)C(=O)O)[C@@H](C)O)C(C)C)C(=O)O` [Compound 11], the values for the EC50 on Human GLP-1 receptors and on Human glucagon receptors were < 0.01 nM and 0.01 to 0.1 nM, respectively.

Regarding `CCCCCCCCCCCCCCCCCC(=O)N[C@@H](CCC(=O)NCCOCCOCC(=O)NCCOCCOCC(=O)NCCCC[C@H](NC(=O)[C@H](CC(=O)O)NC(=O)[C@H](CO)NC(=O)[C@@H](NC(=O)[C@H](Cc1ccccc1)NC(=O)[C@@H](NC(=O)CNC(=O)[C@H](CCC(N)=O)NC(=O)C(C)(C)NC(=O)[C@@H](N)Cc1c[nH]cn1)[C@@H](C)O)[C@@H](C)O)C(=O)N[C@@H](CO)C(=O)N[C@@H](CCCCN)C(=O)N[C@@H](Cc1ccc(O)cc1)C(=O)N[C@@H](CC(C)C)C(=O)N[C@@H](CC(=O)O)C(=O)N[C@H]1CCCCNC(=O)c2ccc(cc2)C(=O)NCCCC[C@@H](C(=O)N[C@@H](CC(=O)O)C(=O)N[C@@H](Cc2ccccc2)C(=O)N[C@H](C(=O)N[C@@H](CCC(N)=O)C(=O)N[C@@H](Cc2c[nH]c3ccccc23)C(=O)N[C@@H](CC(C)C)C(=O)N[C@@H](CCSC)C(=O)N[C@@H](CC(N)=O)C(=O)N[C@H](C(=O)N[C@@H](CCCCN)C(=O)O)[C@@H](C)O)C(C)C)NC(=O)[C@H](C)NC(=O)[C@H](CCCNC(=N)N)NC(=O)[C@H](CCCNC(=N)N)NC1=O)C(=O)O` [Compound 31, H-HAibQGTFTSDZSKYLDKRRAKDFVQWLMNTK-OH], the EC50 on Human GLP-1 receptors and on Human glucagon receptors was < 0.01 nM in each case.

`CSCC[C@H](NC(=O)[C@H](CC(C)C)NC(=O)[C@H](Cc1c[nH]c2ccccc12)NC(=O)[C@H](CCC(N)=O)NC(=O)[C@@H](NC(=O)[C@H](Cc1ccccc1)NC(=O)[C@H](CC(=O)O)NC(=O)[C@H](CCC(N)=O)NC(=O)[C@H](C)NC(=O)[C@H](CCCNC(=N)N)NC(=O)[C@H](CCCNC(=N)N)NC(=O)C(C)(C)NC(=O)[C@H](CC(=O)O)NC(=O)[C@H](CC(C)C)NC(=O)[C@H](Cc1ccc(O)cc1)NC(=O)[C@H](CCCCN)NC(=O)[C@H](CO)NC(=O)[C@H](CCCCNC(=O)COCCOCCNC(=O)COCCOCCNC(=O)CC[C@H](NC(=O)CCCCCCCCCCCCCCCCCCC(=O)O)C(=O)O)NC(=O)[C@H](CC(=O)O)NC(=O)[C@H](CO)NC(=O)[C@@H](NC(=O)[C@H](Cc1ccccc1)NC(=O)[C@@H](NC(=O)CNC(=O)[C@H](CCC(N)=O)NC(=O)C(C)(C)NC(=O)[C@@H](N)Cc1c[nH]cn1)[C@@H](C)O)[C@@H](C)O)C(C)C)C(=O)N[C@@H](CC(N)=O)C(=O)N[C@H](C(=O)N[C@@H](CCCCN)C(=O)O)[C@@H](C)O` [Compound 44]: the EC50 is 0.1 to 1 nM at Human GLP-1 receptors and > 1 nM on Human glucagon receptors.

Take `CCCCCCCCCCCCCCCCCC(=O)N[C@@H](CCC(=O)NCCOCCOCC(=O)NCCOCCOCC(=O)NCCCC[C@H](NC(=O)[C@H](CC(=O)O)NC(=O)[C@H](CO)NC(=O)[C@@H](NC(=O)[C@H](Cc1ccccc1)NC(=O)[C@@H](NC(=O)CNC(=O)[C@H](CCC(N)=O)NC(=O)C(C)(C)NC(=O)[C@@H](N)Cc1c[nH]cn1)[C@@H](C)O)[C@@H](C)O)C(=O)N[C@@H](CO)C(=O)N[C@@H](CCCCN)C(=O)N[C@@H](Cc1ccc(O)cc1)C(=O)N[C@@H](CC(C)C)C(=O)N[C@@H](CC(=O)O)C(=O)N[C@H]1CC(=O)NCC(=O)NCCCC[C@@H](C(=O)N[C@@H](CC(=O)O)C(=O)N[C@@H](Cc2ccccc2)C(=O)N[C@H](C(=O)N[C@@H](CCC(N)=O)C(=O)N[C@@H](Cc2c[nH]c3ccccc23)C(=O)N[C@@H](CC(C)C)C(=O)N[C@@H](CCSC)C(=O)N[C@@H](CC(N)=O)C(=O)N[C@H](C(=O)N[C@@H](CCCCN)C(=O)O)[C@@H](C)O)C(C)C)NC(=O)[C@H](C)NC(=O)[C@H](CCCNC(=N)N)NC(=O)[C@H](CCCNC(=N)N)NC1=O)C(=O)O` [Compound 37, H-HAibQGTFTSDZSKYLDDRRAKDFVQWLMNTK-OH]: the EC50 on Human GLP-1 receptors and at Human glucagon receptors was < 0.01 nM in each case.

Turning to `CCCCCCCCCCCCCCCCCC(=O)N[C@@H](CCC(=O)NCCOCCOCC(=O)NCCOCCOCC(=O)NCCCC[C@H](NC(=O)[C@H](CC(=O)O)NC(=O)[C@H](CO)NC(=O)[C@@H](NC(=O)[C@H](Cc1ccccc1)NC(=O)[C@@H](NC(=O)CNC(=O)[C@H](CCC(N)=O)NC(=O)C(C)(C)NC(=O)[C@@H](N)Cc1c[nH]cn1)[C@@H](C)O)[C@@H](C)O)C(=O)N[C@@H](CO)C(=O)N[C@@H](CCCCN)C(=O)N[C@@H](Cc1ccc(O)cc1)C(=O)N[C@@H](CC(C)C)C(=O)N[C@@H](CC(=O)O)C(=O)NC(C)(C)C(=O)N[C@@H](CCCNC(=N)N)C(=O)N[C@@H](CCCNC(=N)N)C(=O)N[C@@H](C)C(=O)N[C@@H](CCC(N)=O)C(=O)N[C@@H](CC(=O)O)C(=O)N[C@@H](Cc1ccccc1)C(=O)N[C@H](C(=O)N[C@@H](CCC(N)=O)C(=O)N[C@@H](Cc1c[nH]c2ccccc12)C(=O)N[C@@H](CC(C)C)C(=O)N[C@@H](CCSC)C(=O)N[C@@H](CC(N)=O)C(=O)N[C@H](C(=O)N[C@@H](CCCCN)C(N)=O)[C@@H](C)O)C(C)C)C(=O)O` [Compound 6], the EC50 on Human GLP-1 receptors and on Human glucagon receptors was < 0.01 nM in each case.
